Assay results as given in US12049520B2, “Bicyclic peptide ligands specific for CD137” (priority 2017, dated 2024).
“Also recorded” adds a separate entry of the source.

Experiments:
CD137 [1] = molecular target: T1, CD137 (Homo sapiens, UniProt Q07011); experiment: CD137 cell activity, Promega CD137 NF-κB luciferase reporter assay in Jurkat cells, antagonism of CD137L; type: cell-based; parameters: host or cells: Jurkat (CD137 Jurkat reporter cells); conditions: co-incubation with trimeric CD137L, FIG. 1
T1 sequence (Q07011 24-255): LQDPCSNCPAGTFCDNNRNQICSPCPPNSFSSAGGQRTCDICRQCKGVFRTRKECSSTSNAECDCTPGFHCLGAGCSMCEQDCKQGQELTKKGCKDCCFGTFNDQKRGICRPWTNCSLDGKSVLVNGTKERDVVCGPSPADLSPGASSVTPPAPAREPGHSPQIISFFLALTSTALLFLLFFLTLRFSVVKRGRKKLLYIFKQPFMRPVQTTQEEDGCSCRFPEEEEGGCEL
Experimental: The biological activity of the CD137-specific peptides was tested using the cellular CD137 luciferase reporter assay kit (Promega). The cells in this commercially available kit express luciferase that is activated down-stream of CD137. This assay can be used to assess agonism (exemplified by CD137 ligand, CD137L) and antagonism (exemplified by bicyclic peptide 74-01-04-N002).
The Promega CD137 cell-activity assay uses NF-κB luciferase luminescence as a read-out of CD137 activation in Jurkat cells. […] Dilute and then titrate down the bicyclic peptide in a sterile 96 well-plate. […] Prepare enough reagent for duplicate samples and then perform ⅓ dilution series dilution series. Include positive control CD137L and bicyclic peptide alone. […] Add 50 μl cells/well to white cell culture plate. Add 12.5 μl bicyclic peptide (at 6× final concentration) to the cells.
Co-incubate cells together with CD137L agonist and bicyclic peptide for 6 h at 37° C., 5% CO2. After 6 h thaw Bio-Glo™ and develop the assay at room-temperature. Add 75 μl Bio-Glo™ per well and incubate 5-10 min. Read luminescence signal on Pherastar plate-reader LUM plus models, gain 3600 using MARS software. Analyse data by calculating the percentage inhibition compared to CD137L alone. […]
The CD137 reporter activity was determined as NF-κB promotor driven luciferase activity.

CD137 [2] = molecular target: T1, CD137; experiment: Fluorescence polarization competition binding assay, tracer BCY640 against CD137L, Urelumab, Utomilumab; parameters: purchased AcroBiosystems; conditions: BCY640 tracer at 1 nM, CD137 500 nM, FIGS. 2 and 3
Experimental: The binding site of the hCD137-specific Bicycle peptide was determined by competition experiment between a fluorescent labelled CD137 binding peptide and natural ligand CD137L, agonistic antibodies Urelumab and Utomilumab. Urelumab antibody binds to a distinct binding site while CD137L and Utomilumab both bind to the site termed the ligand-binding site.
The competitor agonists CD137L (R&D systems), Urelumab and Utomilumab were diluted in assay buffer 20 mM HEPES, 150 mM NaCl, 0.05% P20, pH7.5 to a top concentration of 500-1000 nM. The human CD137 protein (AcroBiosystems) was diluted to 500 nM final concentration in the assay. […] The assay was typically set up by adding 5 μL agonist competitor, 10 μL CD137 protein then 10 μL fluorescent peptide. The total volume of 25 μL was prepared in black walled and bottomed low binding low volume 384 well plates. Measurements were conducted on a BMG PHERAstar FS equipped with an FP 485 520 520 optic module at 25° C. with 200 flashes per well and a positioning delay of 0.1 second. Each well was measured every 5 minutes for 60 minutes. The gain was set in a well containing tracer without target protein. The mP-values at the end of the 60 minutes read were plotted against concentration of the agonists. Reduction in the mP-values indicates competition between the known agonist and the tracer peptide.

CD137 [3] = molecular target: T1, CD137; experiment: CD137 direct binding assay (fluorescence polarisation); conditions: D-Alanine scan, reference BCY7151
Experimental: Affinity of the peptides of the invention for human CD137 (Ki) was determined using a fluorescence polarisation assay, in accordance with the methods disclosed in WO 2016/067035. Peptides of the invention were labelled with a fluorescent tag (fluorescein, FI) and diluted to 2.5 nM in 50 mM HEPES with 100 mM NaCl and 0.05% tween pH 7.5. CD137 protein was titrated starting at 3 μM in the same assay buffer as the peptide to assay 1 nM peptide in a total volume of 25 μL in black walled and bottomed low bind low volume 384 well plates. The assay was typically set up by adding 5 μL assay buffer, 10 μL CD137 protein then 10 μL fluorescent peptide. The concentrations of CD137 protein were 1 in 2 serial dilutions to give 12 different concentrations starting at 3 μM. Measurements were conducted on a BMG PHERAstar FS equipped with an FP 485 520 520 optic module at 25° C. with 200 flashes per well and a positioning delay of 0.1 second. Alternatively, the measurements were performed using Envision (PerkinElmer) equipped with FITC FP Dual Enh mirror, set to 30 flashes. Each well was measured every 5 minutes for 60 minutes. The gain used for analysis was determined for each tracer at the end of the 60 minutes where there was no protein in the well. The mP were fit to a standard 1:1 binding model with a quadratic equation to generate a Kd value.

ACIEEGQYCFADPYMCA [BCY592]
effect on CD137L activity in CD137 reporter cells (CD137 [1]): can act as an antagonist that inhibits CD137L activity; also recorded: inhibited CD137L activity

ACIEEGQYCFADPYMCA-Sar6-K [BCY640]
binding site on CD137 by competition (CD137 [2]): binds to the physiologically relevant epitope that is shared with both the natural CD137 ligand (CD137L) and CD137 antibody (Utomilumab)

[PEG3]-ACIEEaQYCFADPY(Nle)CA [BCY7297]
affinity relative to the reference peptide (CD137 [3]): improved affinity
